Experiments:
Assay type in all cases: biochemical
JAK3 = JAK3 (Homo sapiens (Human), UniProt P52333); test: In vitro JAK kinase assay (TR-FRET), JAK3; conditions: catalytic domain aa 795-1124, GST-fusion; ATP 0.6 μM; peptide 140 nM; 30 minutes at room temperature
Method: (§1) Compounds were screened for their ability to inhibit JAK1, JAK2 and JAK3 using the assays as indicated below. […] The enzymatic activity was assayed using as substrate a biotinylated peptide, poly (GT)-Biotin (CisBio). […] The degree of phosphorylation was detected by TR-FRET (time-resolved fluorescence energy transfer). […] The enzymatic reactions took place for 30 minutes at room temperature. […] Incubate for 3 h and read on Victor 2V spectrofluorometer (Perkin Elmer) set to read fluorescence resonance energy transfer.

JAK2 = JAK2 (Homo sapiens (Human), UniProt O60674); test: In vitro JAK kinase assay (TR-FRET), JAK2; conditions: catalytic domain aa 826-1132, GST-fusion; ATP 0.2 μM; peptide 20 nM; 30 minutes at room temperature
Sequence of JAK2 (O60674 826-1132): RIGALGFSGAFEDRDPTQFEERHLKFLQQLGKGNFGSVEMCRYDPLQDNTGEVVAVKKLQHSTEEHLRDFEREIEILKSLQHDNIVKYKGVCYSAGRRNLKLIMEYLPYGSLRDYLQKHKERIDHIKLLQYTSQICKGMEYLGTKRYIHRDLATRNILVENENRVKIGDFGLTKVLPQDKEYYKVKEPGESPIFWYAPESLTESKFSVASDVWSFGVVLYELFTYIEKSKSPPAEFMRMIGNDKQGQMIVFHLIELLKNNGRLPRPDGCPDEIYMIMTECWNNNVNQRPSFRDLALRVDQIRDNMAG
Method: as §1

JAK1 = JAK1 (Homo sapiens (Human), UniProt P23458); test: In vitro JAK kinase assay (TR-FRET), JAK1; conditions: catalytic domain aa 850-1154, GST-fusion; ATP 3 μM; peptide 60 nM; 30 minutes at room temperature
Sequence of JAK1 (P23458 850-1154): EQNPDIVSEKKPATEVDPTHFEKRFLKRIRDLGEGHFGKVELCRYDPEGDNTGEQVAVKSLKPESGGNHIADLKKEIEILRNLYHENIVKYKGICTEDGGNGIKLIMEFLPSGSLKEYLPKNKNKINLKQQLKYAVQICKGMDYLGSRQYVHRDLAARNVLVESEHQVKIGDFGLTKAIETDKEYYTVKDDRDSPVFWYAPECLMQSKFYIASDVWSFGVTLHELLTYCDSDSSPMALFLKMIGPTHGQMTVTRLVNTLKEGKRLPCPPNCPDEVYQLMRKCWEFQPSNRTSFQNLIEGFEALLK
Method: as §1

Sequence of JAK3 (P52333 795-1124): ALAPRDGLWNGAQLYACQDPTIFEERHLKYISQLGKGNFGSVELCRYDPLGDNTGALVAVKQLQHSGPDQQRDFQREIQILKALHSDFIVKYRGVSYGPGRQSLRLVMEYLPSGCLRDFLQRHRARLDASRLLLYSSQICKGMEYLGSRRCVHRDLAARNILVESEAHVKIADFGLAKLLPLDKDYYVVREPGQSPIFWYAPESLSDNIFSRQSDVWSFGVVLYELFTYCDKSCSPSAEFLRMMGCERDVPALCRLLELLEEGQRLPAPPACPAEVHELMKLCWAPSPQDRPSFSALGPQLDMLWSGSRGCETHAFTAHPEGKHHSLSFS

Row | Compound | IC50 (JAK3) [nM] | IC50 (JAK2) [nM] | IC50 (JAK1) [nM]
1 | C[C@H](Nc1nc(-c2cnn3ccccc23)nc(OC[C@@H](O)CO)c1F)c1ncc(F)cn1 [Example 13, (2S)-3-[(5-fluoro-6-{[(1S)-1-(5-fluoropyrimidin-2-yl)ethyl]amino}-2-pyrazolo[1,5-a]pyridin-3-ylpyrimidin-4-yl)oxy]propane-1,2-diol] | 4 | 1 | 4
2 | N#CCC(=O)N1CCC[C@@H](Nc2nc(-c3cnn4ccccc34)nc(OCCO)c2F)C1 [Example 14, 3-((3R)-3-{[5-fluoro-6-(2-hydroxyethoxy)-2-pyrazolo[1,5-a]pyridin-3-ylpyrimidin-4-yl]amino}piperidin-1-yl)-3-oxopropanenitrile] | 1 | 0.5 | 1
3 | CCCCOc1nc(-c2cnn3ccccc23)nc(N[C@@H]2CCCN(C(=O)CC#N)C2)c1F [Example 15, 3-{(3R)-3-[(6-butoxy-5-fluoro-2-pyrazolo[1,5-a]pyridin-3-ylpyrimidin-4-yl)amino]piperidin-1-yl}-3-oxopropanenitrile] | 2 | 1 | 13
4 | CCOCCOc1nc(-c2cnn3ccccc23)nc(N[C@@H]2CCCN(C(=O)CC#N)C2)c1F [Example 16, 3-((3R)-3-{[6-(2-ethoxyethoxy)-5-fluoro-2-pyrazolo[1,5-a]pyridin-3-ylpyrimidin-4-yl]amino}piperidin-1-yl)-3-oxopropanenitrile] | 1 | 0.7 | 4
5 | N#CCC(=O)N1CCC[C@@H](Nc2nc(-c3cnn4ccccc34)nc(-c3ccc(CO)cc3)c2F)C1 [Example 17, 3-[(3R)-3-({5-Fluoro-6-[4-(hydroxymethyl)phenyl]-2-pyrazolo[1,5-a]pyridin-3-ylpyrimidin-4-yl}amino)piperidin-1-yl]-3-oxopropanenitrile] | 1 | 0.6 | 2
6 | N#CCC(=O)N1CCC[C@@H](Nc2nc(-c3cnn4ccccc34)nc(-c3ccc(N)nc3)c2F)C1 [Example 18, 3-((3R)-3-{[6-(6-Aminopyridin-3-yl)-5-fluoro-2-pyrazolo[1,5-a]pyridin-3-ylpyrimidin-4-yl]amino}piperidin-1-yl)-3-oxopropanenitrile] | 2 | 0.6 | 1
7 | COc1ccc(-c2nc(-c3cnn4ccccc34)nc(N[C@@H]3CCCN(C(=O)CC#N)C3)c2F)cn1 [Example 19, 3-((3R)-3-{[5-fluoro-6-(6-methoxypyridin-3-yl)-2-pyrazolo[1,5-a]pyridin-3-ylpyrimidin-4-yl]amino}piperidin-1-yl)-3-oxopropanenitrile] | 2 | 0.3 | 2
8 | Cc1cc(-c2nc(-c3cnn4ccccc34)nc(N[C@@H]3CCCN(C(=O)CC#N)C3)c2F)ccn1 [Example 20, 3-((3R)-3-{[5-fluoro-6-(2-methylpyridin-4-yl)-2-pyrazolo[1,5-a]pyridin-3-ylpyrimidin-4-yl]amino}piperidin-1-yl)-3-oxopropanenitrile] | 1 | 0.5 | 1
9 | Cc1cc(-c2nc(-c3cnn4ccccc34)nc(N(C)[C@@H]3CCCN(C(=O)CC#N)C3)c2F)ccn1 [Example 21, 3-{(3R)-3-[[5-fluoro-6-(2-methylpyridin-4-yl)-2-pyrazolo[1,5-a]pyridin-3-ylpyrimidin-4-yl](methyl)amino]piperidin-1-yl}-3-oxopropanenitrile] | 11 | 1 | 6
10 | O=C(CO)N1CCC[C@@H](Nc2nc(-c3cnn4ccccc34)nc(N3CCC(O)CC3)c2F)C1 [Example 22, 1-(5-Fluoro-6-{[(3R)-1-glycoloylpiperidin-3-yl]amino}-2-pyrazolo[1,5-a]pyridin-3-ylpyrimidin-4-yl)piperidin-4-ol] | 4 | 0.7 | 7
11 | O=C(CO)N1CCC[C@@H](Nc2nc(-c3cnn4ccccc34)nc(N3CCC(CO)CC3)c2F)C1 [Example 23, 2-[(3R)-3-({5-Fluoro-6-[4-(hydroxymethyl)piperidin-1-yl]-2-pyrazolo[1,5-a]pyridin-3-ylpyrimidin-4-yl}amino)piperidin-1-yl]-2-oxoethanol] | 5 | 1 | 8
12 | CN1CCN(c2nc(-c3cnn4ccccc34)nc(N[C@@H]3CCCN(C(=O)CO)C3)c2F)CC1 [Example 25, 2-((3R)-3-{[5-fluoro-6-(4-methylpiperazin-1-yl)-2-pyrazolo[1,5-a]pyridin-3-ylpyrimidin-4-yl]amino}piperidin-1-yl)-2-oxoethanol] | 2 | 0.6 | 22
13 | Cc1c(N[C@@H]2CCCN(C(=O)CO)C2)nc(-c2cnn3ccccc23)nc1N1CCOCC1 [Example 26, 2-{(3R)-3-[(5-Methyl-6-morpholin-4-yl-2-pyrazolo[1,5-a]pyridin-3-ylpyrimidin-4-yl)amino]piperidin-1-yl}-2-oxoethanol] | 30 | 4 | 26
14 | COCCOc1nc(-c2cnn3ccccc23)nc(N[C@@H]2CCCN(C(=O)CO)C2)c1C [Example 27, 2-((3R)-3-{[6-(2-Methoxyethoxy)-5-methyl-2-pyrazolo[1,5-a]pyridin-3-ylpyrimidin-4-yl]amino}piperidin-1-yl)-2-oxoethanol] | 3 | 0.7 | 19
15 | CCOC(=O)C1(C)CCN(c2nc(-c3cnn4ccccc34)nc(N[C@@H]3CCCN(C(=O)CO)C3)c2F)CC1 [Example 28, Ethyl 1-(5-fluoro-6-{[(3R)-1-glycoloylpiperidin-3-yl]amino}-2-pyrazolo[1,5-a]pyridin-3-ylpyrimidin-4-yl)-4-methylpiperidine-4-carboxylate] | 3 | 0.8 | 5
16 | Cc1ccn2ncc(-c3nc(N[C@@H]4CCCN(C(=O)CO)C4)c(F)c(N4CCOCC4)n3)c2c1 [Example 29, 2-((3R)-3-{[5-Fluoro-2-(5-methylpyrazolo[1,5-a]pyridin-3-yl)-6-morpholin-4-ylpyrimidin-4-yl]amino}piperidin-1-yl)-2-oxoethanol] | 10 | 4 | 27
17 | CCOC(=O)C1CCN(c2nc(-c3cnn4ccccc34)nc(N[C@@H]3CCCN(C(=O)CC#N)C3)c2F)CC1 [Example 30, Ethyl 1-(6-{[(3R)-1-(cyanoacetyl)piperidin-3-yl]amino}-5-fluoro-2-pyrazolo[1,5-a]pyridin-3-ylpyrimidin-4-yl)piperidine-4-carboxylate] | 2 | 0.6 | 4
18 | N#CCC(=O)N1CCC[C@@H](Nc2nc(-c3cnn4ccccc34)nc(N3CCC(C(=O)O)CC3)c2F)C1 [Example 31, 1-(6-{[(3R)-1-(Cyanoacetyl)piperidin-3-yl]amino}-5-fluoro-2-pyrazolo[1,5-a]pyridin-3-ylpyrimidin-4-yl)piperidine-4-carboxylic acid] | 2 | 0.4 | 1
19 | O=C(CO)N1CCC[C@@H](Nc2nc(-c3cnn4ccccc34)nc(-c3cn[nH]c3)c2F)C1 [Example 32, 2-((3R)-3-{[5-Fluoro-2-pyrazolo[1,5-a]pyridin-3-yl-6-(1H-pyrazol-4-yl)pyrimidin-4-yl]amino}piperidin-1-yl)-2-oxoethanol] | 4 | 0.6 | 2
20 | CC(C)(O)Cn1cc(-c2nc(-c3cnn4ccccc34)nc(N[C@@H]3CCCN(C(=O)CO)C3)c2F)cn1 [Example 33, 1-[4-(5-Fluoro-6-{[(3R)-1-glycoloylpiperidin-3-yl]amino}-2-pyrazolo[1,5-a]pyridin-3-ylpyrimidin-4-yl)-1H-pyrazol-1-yl]-2-methylpropan-2-ol] | 2 | 0.6 | 6
21 | Cc1cc(-c2nc(-c3cnn4ccccc34)nc(N[C@@H]3CCCN(C(=O)CO)C3)c2F)ccn1 [Example 34, 2-((3R)-3-{[5-Fluoro-6-(2-methylpyridin-4-yl)-2-pyrazolo[1,5-a]pyridin-3-ylpyrimidin-4-yl]amino}piperidin-1-yl)-2-oxoethanol] | 4 | 0.2 | 2
22 | Cc1ccc(-c2nc(-c3cnn4ccccc34)nc(N[C@@H]3CCCN(C(=O)CO)C3)c2F)cn1 [Example 36, 2-((3R)-3-{[5-Fluoro-6-(6-methylpyridin-3-yl)-2-pyrazolo[1,5-a]pyridin-3-ylpyrimidin-4-yl]amino}piperidin-1-yl)-2-oxoethanol] | 2 | 0.5 | 2
23 | O=C(CO)N1CCC[C@@H](Nc2nc(-c3cnn4ccccc34)nc(-c3ccnc(CO)c3)c2F)C1 [Example 37, 2-[(3R)-3-({5-Fluoro-6-[2-(hydroxymethyl)pyridin-4-yl]-2-pyrazolo[1,5-a]pyridin-3-ylpyrimidin-4-yl}amino)piperidin-1-yl]-2-oxoethanol] | 7 | 1 | 2
24 | CCOC(=O)c1ccc(-c2nc(-c3cnn4ccccc34)nc(N[C@@H]3CCCN(C(=O)CO)C3)c2F)cn1 [Example 38, Ethyl 5-(5-fluoro-6-{[(3R)-1-glycoloylpiperidin-3-yl]amino}-2-pyrazolo[1,5-a]pyridin-3-ylpyrimidin-4-yl)pyridine-2-carboxylate] | 6 | 2 | 4
25 | COCCOc1nc(-c2cnn3ccccc23)nc(N[C@@H]2CCCN(C(=O)CO)C2)c1F [Example 39, 2-((3R)-3-{[5-Fluoro-6-(2-methoxyethoxy)-2-pyrazolo[1,5-a]pyridin-3-ylpyrimidin-4-yl]amino}piperidin-1-yl)-2-oxoethanol] | 3 | 0.8 | 11
